Experimental data: patent US10087421B2, “Stem cell suspension” (OTSUKA PHARMACEUTICAL FACTORY, INC., priority 2010, dated 2018)

What was measured:
[1] = tested on: hAT-MSCs P8 and hBM-MSCs P6; assay: Survival rate, cell aggregation and floating after standing for 1 hr (Example 7); type: cell-based, human; conditions: about 25° C.
Method: hAT-MSCs and hBM-MSCs were passaged 6 or 8 times and the obtained cells (hAT-MSCs P8 and hBM-MSCs P6) were plated on 10 cm-dishes. The cells were washed three times with 5-ml HESPANDER (KYORIN Pharmaceutical Co., Ltd.) per 10-cm dish, and detached by treating with 1-ml trypsin-EDTA (0.25% trypsin, 1 mM EDTA·4Na) for 20 sec into a single-cell state. The obtained cells (hAT-MSCs P8, 2.4×10^6 cells; hBM-MSCs P6, 2.3×10^6 cells) were transferred to a 15-ml FALCON tube, recovered by centrifugation, and suspended in the following composition solution. After standing at room temperature (about 25° C.) for 1 hr, the survival rate of the cells was measured and the cell aggregation was observed.

[2] = tested on: hAT-MSC P3 and hBM-MSC P3; assay: Cell morphology, culture after standing and survival, results not separated by cell type; type: cell-based, human; conditions: trehalose in HESPANDER; 36 hr (Example 6)
Method: The cells obtained by passaging hAT-MSCs and hBM-MSCs three times (hAT-MSC P3 and hBM-MSC P3) were plated on 10-cm dishes. The cells were washed three times with 5-ml PBS(−) per 10-cm dish, and detached by treating with 1-ml trypsin-EDTA (0.25% trypsin, 1 mM EDTA·4Na) for 20 sec into a single-cell state. […] After standing at room temperature (about 25° C.) for 240 min or 24 hr, the survival rate of the cells was measured, and the cell aggregation and morphology were observed. Furthermore, after standing for 240 min or 24 hr, the cells were further cultured for 12 hr and the cell morphology was observed.
hAT-MSCs and hBM-MSCs were passaged three times and the obtained cells (hAT-MSCs P3 and hBM-MSCs P3) were plated on 10 cm-dishes. The cells were washed three times with 5-ml PBS(−) per 10-cm dish, and detached by treating with 1-ml trypsin-EDTA (0.25% trypsin, 1 mM EDTA·4Na) for 20 sec into a single-cell state. The obtained cells (hAT-MSCs P3, 4.25×10^5 cells; survival rate, 97.5%: hBM-MSCs P3, 5.0×10^5 cells; survival rate, 98.2%) were transferred to a 15-ml FALCON tube, recovered by centrifugation, washed twice with PBS(−), and suspended in the following composition solution (100 μL). After standing at room temperature (about 25° C.) for 8 hr or 36 hr, the survival rate of the cells was measured and the cell aggregation was observed.

[3] = tested on: Swine subcutaneous adipose tissue-derived mesenchymal stem cells (Pig AT-MSCs); assay: Microscopic observation of cell aggregate mass and cell floating state; type: cell-based; conditions: from dilution series of ET-K with saline; Pig AT-MSCs P2; 25° C.
Method: The suspension was left standing at each temperature (0, 25, and 37° C.), pipetted several times with 20 μL PIPETMAN 0, 30, 60, 120 and 240 min later, and 10 μL thereof was transferred to a dish. A stereomicroscope was focused on the lowermost surface of the suspension on the dish, and observation was performed. The cells forming a mass with adjacent cells under the microscope were taken as cell aggregate mass. The cell aggregate mass was confirmed to be obviously moving as a mass by shaking the dish on the stage of the microscope. The swine subcutaneous adipose tissue-derived mesenchymal stem cells prepared in Example 1 were passaged twice and the obtained cells (Pig AT-MSCs P2) were plated on three 10 cm-dishes. The cells were washed three times with 5 ml PBS(−) per 10 cm dish, and detached by treating with 1 ml trypsin-EDTA (0.25% trypsin, 1 mM EDTA·4Na) for 20 sec into a single-cell state. […] Thereafter, in the same manner as in Example 1, the survival rate was calculated and the presence or absence of the cell aggregate mass was observed. […] Thereafter, in the same manner as in Example 1, the survival rate was calculated and the presence or absence of a cell aggregate mass was observed. […]

OC[C@H]1O[C@H](O[C@H]2O[C@H](CO)[C@@H](O)[C@H](O)[C@H]2O)[C@H](O)[C@@H](O)[C@@H]1O [trehalose]
cell aggregation suppressive effect [1]: observed | cell floating effect [1]: observed | protrusion from the cell / on the cell surface [1]: suppressed | cell survival rate ([1]; added to HESPANDER): higher than by adding HESPANDER (H) alone | effect on the cytotoxicity of fucoidan ([1]; trehalose with 10 μg/ml fucoidan in HESPANDER): tendency to suppress the cytotoxicity of fucoidan | trehalose concentration suggested to be preferable to increase the cell survival rate [2]: not more than 181.2 mg/mL | trehalose concentration at which a stem cell aggregation suppressive effect is exhibited [3]: not less than 15.1 mg/ml | trehalose concentration at which the stem cells float stably [3]: at least 15.1 mg/ml
